Here are results for 1 compound from patent publication US20180250328A1, “Metallocene-boronic acid-containing compounds and copolymers as antimicrobial agents” (University of South Carolina, priority 2017, published 2018).

The subject of assay [1] is six strains of bacteria (S. aureus, E. faecalis, E. coli, P. vulgaris, P. aeruginosa and K. pneumoniae). Description: LIVE/DEAD bacteria viability assay by CSLM. The class given is cell-based. Conditions: 18-hour incubation at 37° C.; penicillin-G 5, PCo-PPB 11 μg, PCo-PPB-Peni 16 μg per 1 mL.
Protocol: One (1) mL of active bacterial stock of various strains was introduced to 5 penicillin-G, 11 μg cobaltocenium-boronic acid-containing copolymer, and 16 μg penicillin-loaded cobaltocenium-boronic acid-containing copolymers (penicillin-G weight: 5 m), respectively. An untreated cell suspension was used as the control. Following 18-hour incubation at 37° C., 1 μL LIVE/DEAD BacLight (Bacterial Viability Kit; INVITROGEN INC.®) was added to the incubation solution. After incubation for 15 minutes, cells were imaged using a LEICA TCS SP5® Laser Scanning Confocal Microscope with a 63X oil immersion lens.
Another assay relates to S. aureus. Nature of the assay: disk-diffusion assay of penicillin-loaded polymers. The class given is cell-based. As to conditions: Staphylococcus aureus. As to the method:
FIG. 8B is a 3-D plot of inhibition zones of penicillin, penicillin loaded cobaltocenium-containing polymers (PCo-Peni), and penicillin loaded cobaltocenium-boronic acid-containing copolymers (PCo-PPB-Peni) against six strains of bacteria using different amounts of penicillin (A: 5 μg penicillin-G alone, B: PCo-Peni with 5 μg penicillin-G, C: PCo-PPB-Peni with 5 μg penicillin-G, D: 10 μg penicillin-G, E: PCo-Peni with 10 μg penicillin-G, F: PCo-PPB-Peni with 10 μg penicillin-G).
For the bacteria, a single colony was inoculated in 30 mL tryptic soy broth (TSB) at 37° C. for 24 hours, shaking at 190 rpm/min. All bacteria were grown to an optical density of about 1.00 (OD600=1.00) for further use. To conduct the agar disk-diffusion assays, actively-growing cultures of each bacterial strain on mannitol salt agar (MSA) were inoculated on tryptic soy broth (TSB) agar plates. The bacterial growth culture (cell concentrations were 1.0×10^6 CFU/mL) was diluted from 10 μL to 1 mL in tryptic soy broth (TSB) and 100 μL was spread on TSB agar plates to form a bacterial lawn covering the plate surface. Then, 6 mm (diameter) filter discs were added to the plate surface, aqueous cobaltocenium-boronic acid-containing copolymers (PCo-PPB) at different concentrations were added to disks, and the plates were incubated at 28° C. for 18 h. […]

For the compound `CC1(C)S[C@@H]2[C@H](NC(=O)Cc3ccccc3)C(=O)N2[C@H]1C(=O)O` [penicillin-G], the “killing of bacteria (LIVE/DEAD BacLight)” value in assay [1] is reported as “not effective at killing bacteria”. Moreover, in the assay with S. aureus (5 μg penicillin-G), the zone of inhibition – broadly, the size of the clear area around the sample on an inoculated plate – at 5 µg/disc came out at 7 mm. The compound further gave a zone of inhibition at 10 µg/disc in the assay on S. aureus (10 μg penicillin-G) of 14.5 mm.
